Test [1] has as its target T1, Alpha-2B adrenergic receptor (Rattus norvegicus, UniProt P19328).
T1 sequence (P19328 whole entry): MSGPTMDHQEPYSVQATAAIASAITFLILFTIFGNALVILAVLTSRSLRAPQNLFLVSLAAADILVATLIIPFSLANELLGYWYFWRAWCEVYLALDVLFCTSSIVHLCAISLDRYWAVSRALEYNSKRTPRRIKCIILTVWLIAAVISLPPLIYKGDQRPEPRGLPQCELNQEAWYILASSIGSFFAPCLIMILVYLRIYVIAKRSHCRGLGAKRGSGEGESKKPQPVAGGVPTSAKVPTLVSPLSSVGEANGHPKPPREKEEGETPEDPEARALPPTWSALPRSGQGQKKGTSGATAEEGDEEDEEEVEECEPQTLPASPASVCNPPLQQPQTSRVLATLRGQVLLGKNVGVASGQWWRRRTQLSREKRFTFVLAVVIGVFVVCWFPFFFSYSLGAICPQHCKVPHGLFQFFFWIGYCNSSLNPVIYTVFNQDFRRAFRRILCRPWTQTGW
As to the kind of experiment: Ancillary Binding affinity towards rat alpha-2B receptor.

Test [2] in a line: Ancillary Binding affinity towards rat 5-hydroxytryptamine 2 receptor.
The target in another test is D(1A) dopamine receptor (Rattus norvegicus, UniProt P18901). As to the kind of experiment: Ancillary Binding affinity to rat Dopamine receptor D1.
Test [3] concerns the target T2, Alpha-1D adrenergic receptor (Homo sapiens, UniProt P25100).
T2 sequence (P25100 whole entry): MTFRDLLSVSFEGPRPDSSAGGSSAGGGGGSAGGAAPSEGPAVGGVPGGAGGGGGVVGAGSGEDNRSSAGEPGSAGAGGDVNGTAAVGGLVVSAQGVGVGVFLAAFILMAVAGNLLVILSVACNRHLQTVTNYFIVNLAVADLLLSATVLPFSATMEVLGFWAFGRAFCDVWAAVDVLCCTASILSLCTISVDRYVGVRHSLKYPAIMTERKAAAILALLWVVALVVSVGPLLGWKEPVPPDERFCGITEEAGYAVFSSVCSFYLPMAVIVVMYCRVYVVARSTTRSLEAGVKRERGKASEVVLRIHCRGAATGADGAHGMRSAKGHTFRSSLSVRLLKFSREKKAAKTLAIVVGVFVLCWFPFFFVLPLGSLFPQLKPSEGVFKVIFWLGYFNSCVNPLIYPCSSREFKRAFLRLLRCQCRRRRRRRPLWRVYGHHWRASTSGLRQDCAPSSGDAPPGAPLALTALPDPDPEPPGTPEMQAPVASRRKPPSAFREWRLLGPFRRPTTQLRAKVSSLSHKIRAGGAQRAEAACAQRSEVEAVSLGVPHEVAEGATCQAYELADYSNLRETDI
Nature of the test: Binding affinity towards human Alpha-1D adrenergic receptor.

Test [4] addresses T3, Alpha-1A adrenergic receptor (Bos taurus, UniProt P18130).
T3 sequence (P18130 whole entry): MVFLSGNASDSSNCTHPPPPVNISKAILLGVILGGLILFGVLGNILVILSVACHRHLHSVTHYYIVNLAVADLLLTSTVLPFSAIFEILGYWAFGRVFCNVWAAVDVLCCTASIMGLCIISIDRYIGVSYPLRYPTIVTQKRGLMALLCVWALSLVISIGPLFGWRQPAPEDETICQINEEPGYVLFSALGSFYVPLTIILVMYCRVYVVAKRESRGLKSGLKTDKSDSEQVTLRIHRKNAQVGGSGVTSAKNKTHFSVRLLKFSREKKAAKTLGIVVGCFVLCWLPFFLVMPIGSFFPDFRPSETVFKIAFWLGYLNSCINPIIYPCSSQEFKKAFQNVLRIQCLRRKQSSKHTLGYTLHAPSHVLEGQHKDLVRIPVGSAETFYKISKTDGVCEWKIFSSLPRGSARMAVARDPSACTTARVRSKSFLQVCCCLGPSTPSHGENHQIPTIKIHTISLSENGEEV
As to the kind of experiment: Binding affinity towards bovine Alpha-1A adrenergic receptor.

Test [5] addresses T4, Alpha-2A adrenergic receptor (Homo sapiens, UniProt P08913).
T4 sequence (P08913 whole entry): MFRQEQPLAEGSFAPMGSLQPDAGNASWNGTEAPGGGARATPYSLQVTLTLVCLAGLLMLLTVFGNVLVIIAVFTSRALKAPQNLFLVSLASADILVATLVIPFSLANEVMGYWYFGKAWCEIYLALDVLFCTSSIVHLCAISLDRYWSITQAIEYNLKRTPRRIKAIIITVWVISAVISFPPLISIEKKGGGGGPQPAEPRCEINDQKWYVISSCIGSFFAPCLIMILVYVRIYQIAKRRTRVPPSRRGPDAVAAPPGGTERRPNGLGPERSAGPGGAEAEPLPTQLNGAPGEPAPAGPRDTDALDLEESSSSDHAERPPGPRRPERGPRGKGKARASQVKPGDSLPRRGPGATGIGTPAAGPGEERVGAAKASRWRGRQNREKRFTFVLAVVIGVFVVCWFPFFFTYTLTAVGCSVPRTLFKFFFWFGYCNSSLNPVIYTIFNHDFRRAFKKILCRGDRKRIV
Nature of the test: Ancillary Binding affinity towards cloned human Alpha-2A adrenergic receptor.

In test [6] the target is T5, Alpha-2C adrenergic receptor (Homo sapiens, UniProt P18825).
T5 sequence (P18825 whole entry): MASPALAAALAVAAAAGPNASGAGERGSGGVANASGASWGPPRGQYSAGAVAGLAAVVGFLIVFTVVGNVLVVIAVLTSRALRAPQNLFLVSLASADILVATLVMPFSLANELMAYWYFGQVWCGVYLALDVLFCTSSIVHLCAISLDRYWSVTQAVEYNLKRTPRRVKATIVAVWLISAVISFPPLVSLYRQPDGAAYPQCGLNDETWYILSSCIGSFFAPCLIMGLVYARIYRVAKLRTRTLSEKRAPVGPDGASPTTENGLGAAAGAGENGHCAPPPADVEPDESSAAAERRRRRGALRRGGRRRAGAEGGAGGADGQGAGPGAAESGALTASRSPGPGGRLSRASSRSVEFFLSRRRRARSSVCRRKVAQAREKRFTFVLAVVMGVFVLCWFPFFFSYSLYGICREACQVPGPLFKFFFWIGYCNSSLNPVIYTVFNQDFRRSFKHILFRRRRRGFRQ
As to the kind of experiment: Ancillary Binding affinity to cloned human Alpha-2C adrenergic receptor.

SMILES strings stand for the structures.

The Ki is a measure of affinity in units of concentration, obtained from inhibition or displacement. Read a high Ki as lower affinity.

Sequence of D(1A) dopamine receptor (P18901 whole entry): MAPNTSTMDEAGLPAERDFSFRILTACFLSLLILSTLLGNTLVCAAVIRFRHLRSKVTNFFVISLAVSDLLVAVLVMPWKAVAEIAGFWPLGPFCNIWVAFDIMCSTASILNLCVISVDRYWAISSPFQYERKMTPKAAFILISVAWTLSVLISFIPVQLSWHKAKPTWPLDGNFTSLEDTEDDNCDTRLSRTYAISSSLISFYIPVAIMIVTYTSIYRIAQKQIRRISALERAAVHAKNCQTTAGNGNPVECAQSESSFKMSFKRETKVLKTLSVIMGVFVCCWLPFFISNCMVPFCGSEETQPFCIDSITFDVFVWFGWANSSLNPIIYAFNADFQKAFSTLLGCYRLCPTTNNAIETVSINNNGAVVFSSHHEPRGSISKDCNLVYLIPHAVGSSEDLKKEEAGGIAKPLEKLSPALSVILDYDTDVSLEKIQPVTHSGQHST

For the molecule `COc1ccccc1N1CCN(CCn2c(=O)[nH]c3scc(-c4ccccc4)c3c2=O)CC1` [A-119637], the Ki in test [1] is 71 nM; in test [2] it was 137 nM; on D(1A) dopamine receptor, 6090 nM; in test [3] it was 0.252 nM; in test [4], 0.274 nM; in test [5] it was 77.8 nM. Moreover, in test [6], the affinity, expressed as Ki, was 74.7 nM.
Consider `COc1ccccc1N1CCN(CCn2c(=O)[nH]c3scc(-c4cccc(C)c4)c3c2=O)CC1` [A-123189], for which the Ki in test [1] stood at 66.6 nM; in test [2], 2190 nM; at D(1A) dopamine receptor it was 12300 nM; in test [3], 0.312 nM; in test [4], 0.348 nM; in test [5], 82.5 nM. For the same molecule, the Ki in test [6] came out at 82 nM.

Source of the values: ChEMBL document CHEMBL1134245, “Two novel and potent 3-[(o-methoxyphenyl)piperazinylethyl]-5-phenylthien” (Bioorg Med Chem Lett, 2001).
